Measurements as given in PubChem BioAssay AID1918954 (Molecular Pharmacology Branch, DTP, NCI, 2023).

Test system: MDA-MB-468 complex spheroids with HUVEC/MSC, viability
Assay: Anticancer human tumor MDA-MB-468 cell line growth inhibition;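 also: spheroids exposed to agents for seven days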;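 as to viability, T/C: 100% = DMSO vehicle control viability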
Conditions: for IC50: curve of first compound; for viability, T/C: stronger effect = lower value
In short: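 Multicellular complex spheroids of tumor cells with human endothelial cells (HUVEC) and mesenchymal stem cells; the LSD1 inhibitor iadademstat was combined with standard-of-care or investigational agents. Top concentration at or near clinical Cmax, half-log dilutions; final DMSO ≤0.25%.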

[1] = second compound 0.1 µM, first compound 0.0316 µM
[2] = second compound 0.1 µM, first compound 0.1 µM
[3] = second compound 0.1 µM, first compound 0.316 µM
[4] = second compound 0.1 µM, first compound 1 µM
[5] = second compound 0.1 µM, first compound 3.16 µM
[6] = second compound 0.1 µM, first compound 10 µM
[7] = second compound 0.316 µM, first compound 0.0316 µM
[8] = second compound 0.316 µM, first compound 0.1 µM
[9] = second compound 0.316 µM, first compound 0.316 µM
[10] = second compound 0.316 µM, first compound 1 µM
[11] = second compound 0.316 µM, first compound 3.16 µM
[12] = second compound 0.316 µM, first compound 10 µM
[13] = second compound 1 µM, first compound 0.0316 µM
[14] = second compound 1 µM, first compound 0.1 µM
[15] = second compound 1 µM, first compound 0.316 µM
[16] = second compound 1 µM, first compound 1 µM
[17] = second compound 1 µM, first compound 3.16 µM
[18] = second compound 1 µM, first compound 10 µM
[19] = second compound 3.16 µM, first compound 0.0316 µM
[20] = second compound 3.16 µM, first compound 0.1 µM
[21] = second compound 3.16 µM, first compound 0.316 µM
[22] = second compound 3.16 µM, first compound 1 µM
[23] = second compound 3.16 µM, first compound 3.16 µM
[24] = second compound 3.16 µM, first compound 10 µM
[25] = second compound 10 µM, first compound 0.0316 µM
[26] = second compound 10 µM, first compound 0.1 µM
[27] = second compound 10 µM, first compound 0.316 µM
[28] = second compound 10 µM, first compound 1 µM
[29] = second compound 10 µM, first compound 3.16 µM
[30] = second compound 10 µM, first compound 10 µM

Structure (SMILES) | IC50 (second compound 0.1 µM) [nM] | IC50 (second compound 0.316 µM) [nM] | IC50 (second compound 1 µM) [nM] | IC50 (second compound 3.16 µM) [nM] | IC50 (second compound 10 µM) [nM] | viability, T/C [1] [%] | viability, T/C [2] [%] | viability, T/C [3] [%] | viability, T/C [4] [%] | viability, T/C [7] [%] | viability, T/C [8] [%] | viability, T/C [9] [%] | viability, T/C [10] [%] | viability, T/C [13] [%] | viability, T/C [14] [%] | viability, T/C [15] [%] | viability, T/C [16] [%] | viability, T/C [19] [%] | viability, T/C [20] [%] | viability, T/C [21] [%] | other results
CC(C)c1c(-c2ccccc2)nc2c(C#N)c[nH]n2c1=O + NC1CCC(NC2CC2c2ccccc2)CC1 | > 10000 | > 10000 | > 10000 | > 10000 | > 10000 | 96.1 | 109 | 109 | 108 | 99.2 | 101 | 84.3 | 99.5 | 102 | 103 | 96.3 | 102 | 82.2 | 102 | 77.7 | viability, T/C [5]: 105%; viability, T/C [6]: 85.4%; viability, T/C [11]: 102%; viability, T/C [12]: 99.5%; viability, T/C [17]: 101%; viability, T/C [18]: 85.8%; viability, T/C [22]: 95.4%; viability, T/C [23]: 50.7%; viability, T/C [24]: 62.5%; viability, T/C [25]: 74%; viability, T/C [26]: 66.7%; viability, T/C [27]: 70.2%; viability, T/C [28]: 57.2%; viability, T/C [29]: 66%; viability, T/C [30]: 70.4%
CC1COCCN1c1cc(-c2ccnn2C)c2ccnc(-c3ccn[nH]3)c2n1 (stereo not given) + NC1CCC(NC2CC2c2ccccc2)CC1 | 15.2 | 16.2 | 16 | 12.2 | 4.61 | 42.3 | 22.9 | 15.6 | 11.2 | 38.2 | 23 | 16.5 | 13.8 | 37.3 | 23.2 | 16.4 | 9.5 | 38.9 | 27.6 | 18.4 | viability, T/C (second compound 0.1 µM, first compound 0.00316 µM): 81.7%; viability, T/C (second compound 0.1 µM, first compound 0.01 µM): 54.2%; viability, T/C (second compound 0.316 µM, first compound 0.00316 µM): 68.7%; viability, T/C (second compound 0.316 µM, first compound 0.01 µM): 58.5%; viability, T/C (second compound 1 µM, first compound 0.00316 µM): 72.8%; viability, T/C (second compound 1 µM, first compound 0.01 µM): 59%; viability, T/C (second compound 3.16 µM, first compound 0.00316 µM): 60.4%; viability, T/C (second compound 3.16 µM, first compound 0.01 µM): 52.7%; viability, T/C [22]: 14.9%; viability, T/C (second compound 10 µM, first compound 0.00316 µM): 52.9%; viability, T/C (second compound 10 µM, first compound 0.01 µM): 44%; viability, T/C [25]: 30.1%; viability, T/C [26]: 19%; viability, T/C [27]: 17.4%; viability, T/C [28]: 13.4%
COc1ccc([C@@H](O)c2cc(-c3ncnc4cc(N5CCOCC5)ccc34)c(F)cc2Cl)nn1 + NC1CCC(NC2CC2c2ccccc2)CC1 | 1070 | 1160 | 817 | 832 | 1340 | 97.8 | 83.5 | 68 | 50 | 101 | 83.7 | 71.7 | 52.3 | 90.5 | 86.9 | 58.3 | 45.9 | 100 | 64.9 | 61.7 | viability, T/C [5]: 35%; viability, T/C [6]: 12.8%; viability, T/C [11]: 33.6%; viability, T/C [12]: 13.1%; viability, T/C [17]: 33.9%; viability, T/C [18]: 12.5%; viability, T/C [22]: 55.4%; viability, T/C [23]: 33.2%; viability, T/C [24]: 15.6%; viability, T/C [25]: 51.3%; viability, T/C [26]: 58.3%; viability, T/C [27]: 57.5%; viability, T/C [28]: 55%; viability, T/C [29]: 35.2%; viability, T/C [30]: 12.7%
